Results: patent US8426447B2, “Spiro-tricyclic ring compounds as beta-secretase modulators and methods of use” (Amgen Inc., priority 2008, dated 2013)
Each block holds one compound with its values, some of them ahead of it.

Columns and labels:
[1] = molecular target: T1, BACE1 (Homo sapiens, UniProt P56817); assay: In Vitro Enzymatic BACE FRET (Fluorescence Resonance Energy Transfer) Assay; format: biochemical
Procedure, shortened: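 Buffer: 0.05 M acetate, pH 4.2, 10% DMSO final, 100 uM genapol. Start: FRET substrate 50 nM. Incubation 1 h. Stop: Tris to neutral pH. Read: fluorescence.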

[2] = molecular target: T1, BACE1; assay: In Vitro BACE Cell-based Assay (HEK cell assay): Aβ40 in conditioned medium of cells stably expressing Amyloid Precursor Protein, sandwich ELISA
Procedure: In Vitro BACE Cell-based Assay
The cell-based assay measures inhibition or reduction of Aβ40 in conditioned medium of test compound treated cells expressing amyloid precursor protein.
Cells stably expressing Amyloid Precursor Protein (APP) were plated at a density of 40K cells/well in 96 well plates (Costar). The cells were cultivated for 24 hours at 37° C. and 5% CO2 in DMEM supplemented with 10% FBS. The test compounds were then added to cells in 10-point dose response concentrations with the starting concentration being either 100 μM or 10 μM. The compounds were diluted from stock solutions in DMSO and the final DMSO concentration of the test compounds on cells was 0.1%. After 24 h of incubation with the test compounds the supernatant conditioned media was collected and the Aβ 40 levels were determined using a sandwich ELISA. The IC50 of the compound was calculated from the percent of control or percent inhibition of Aβ 40 as a function of the concentration of the test compound.
The sandwich ELISA to detect Aβ 40 was performed in 96 well microtiter plates, which were pre-treated with goat anti-rabbit IgG (Pierce). The capture and detecting antibody pair that were used to detect Aβ 40 from cell supernatants were affinity purified pAb40 (Biosource) and biotinylated 6E10 (Signet Labs Inc.), respectively. The optimal concentration for the pAb40 antibody was 3 μg/ml in Superblock/TBS (Pierce) that was supplemented with 0.05% Tween 20 (Sigma).
Cellular supernatants were incubated with the capture antibody for 3 h at 4° C., followed by 3 wash steps in TBS-tween (0.05%). The detecting antibody incubation was for 2 h at 4° C., again followed by the wash steps as described previously. The final readout of the ELISA is Time-Resolved Fluorescence (counts per minute) using Delfia reagents Streptavidin-Europium and Enhancement solutions (Perkin Elmer) and the Victor 2 multilabel counter (Perkin Elmer).

[3] = Table IV, class symbols, read-out: BACE1 FRET assay
[4] = Table IV, class symbols, read-out: HEK cell assay
[5] = in vitro BACE FRET enzyme assay, IC50 class symbols, read-out: BACE1 FRET assay
[6] = HEK cell-based assay, Aβ40 in conditioned medium, IC50 class symbols, read-out: HEK cell assay
[7] = HEK cells, read-out: HEK cell assay
[8] = Table II, read-out: BACE1 FRET assay
[9] = Table II, Aβ40, 24 h incubation, read-out: HEK cell assay
[10] = Table III, IC50's in uM ranges, read-out: BACE1 FRET assay
[11] = Table III, IC50's in uM ranges, read-out: HEK cell assay

T1 sequence (P56817 46-501, species assumed): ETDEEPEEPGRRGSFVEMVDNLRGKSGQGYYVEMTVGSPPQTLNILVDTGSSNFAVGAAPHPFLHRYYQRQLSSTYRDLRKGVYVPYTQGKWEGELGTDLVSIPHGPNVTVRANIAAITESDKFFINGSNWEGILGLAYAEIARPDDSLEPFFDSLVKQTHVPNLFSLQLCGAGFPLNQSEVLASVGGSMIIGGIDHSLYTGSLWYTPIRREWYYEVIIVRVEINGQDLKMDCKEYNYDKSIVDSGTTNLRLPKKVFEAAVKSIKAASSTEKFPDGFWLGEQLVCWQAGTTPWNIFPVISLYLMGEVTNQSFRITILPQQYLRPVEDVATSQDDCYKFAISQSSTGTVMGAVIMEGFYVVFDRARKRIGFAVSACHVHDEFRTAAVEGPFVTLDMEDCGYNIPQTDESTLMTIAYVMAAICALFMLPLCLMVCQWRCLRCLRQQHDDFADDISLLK

IC50 [1, 5]: 0.1 to 1 µM
IC50 [2, 6]: 0.1 to 1 µM
SMILES: CC(C)C[C@H]1CN(c2ccc3c(c2)[C@]2(COC(N)=N2)c2cc(-c4cccnc4)ccc2O3)CCO1 [compound 359]

IC50 ([1]; read-out: BACE1 FRET assay): 0.1 to 1 µM
IC50 [2, 7]: 0.1 to 1 µM
SMILES: NC1=N[C@@]2(CO1)c1cc(-c3cccnc3)ccc1Oc1cnc(N)cc12 [compound 446]

IC50 [1, 3]: < 0.1 µM
IC50 [2, 4]: 0.1 to 1 µM
SMILES: Cc1cc(-c2ccc3c(c2)[C@]2(COC(N)=N2)c2cc(-c4ccc(F)nc4)ccc2O3)on1 [compound 565]

IC50 ([1]; Table 1, read-out: BACE1 FRET assay): < 0.1 µM
IC50 ([2]; Table 1, Aβ40, 24 h incubation, read-out: HEK cell assay): < 0.1 µM
SMILES: CCCOc1ccc2c(c1)[C@]1(COC(N)=N1)c1cc(-c3cncnc3)ccc1O2 [Example 5, (4S)-2′-propoxy-7′-(5-pyrimidinyl)spiro[1,3-oxazole-4,9′-xanthen]-2-amine]

IC50 ([1]; read-out: BACE1 FRET assay): 0.1 to 1 µM
IC50 ([2]; read-out: HEK cell assay): 1 to 5 µM
SMILES: N#Cc1ccccc1Oc1ccc2c(c1)[C@]1(COC(N)=N1)c1cc(-c3cccnc3)ccc1O2 [compound 986]

IC50 [1, 3]: 1 to 5 µM
IC50 [2, 4]: > 5 µM
SMILES: NC1=N[C@]2(CO1)c1ccccc1Oc1ccc(-c3cccc4cccnc34)cc12 [compound 630]

IC50 [1, 10]: < 0.1 µM
IC50 [2, 11]: 0.1 to 1 µM
SMILES: CC(C)(C)COc1ccc2c(c1)[C@]1(COC(N)=N1)c1cc(-c3ccnnc3)ccc1O2 [compound 145]

IC50 ([1]; read-out: BACE1 FRET assay): < 0.1 µM
IC50 ([2]; read-out: HEK cell assay): 0.1 to 1 µM
SMILES: CCOC(=O)c1ccc(-c2ccc3c(c2)[C@]2(COC(N)=N2)c2cc(-c4cccnc4)ccc2O3)o1 [compound 725]

IC50 ([1]; read-out: BACE1 FRET assay): 0.1 to 1 µM
IC50 ([2]; read-out: HEK cell assay): 1 to 5 µM
SMILES: NC1=N[C@]2(CO1)c1cc(Br)ccc1Oc1ccc(-c3cccnc3)cc12 [compound 960]

IC50 ([1]; read-out: BACE1 FRET assay): 0.1 to 1 µM
IC50 ([2]; read-out: HEK cell assay): 1 to 5 µM
SMILES: N#CCOc1ccc2c(c1)[C@]1(COC(N)=N1)c1cc(-c3cccnc3)ccc1O2 [compound 981]

IC50 [1, 3]: < 0.1 µM
IC50 [2, 4]: < 0.1 µM
SMILES: NC1=N[C@@]2(CO1)c1cc(-c3cncnc3)ccc1Oc1cnc(-c3ccccc3)cc12 [compound 546]

IC50 [1, 10]: < 0.1 µM
IC50 [2, 11]: 0.1 to 1 µM
SMILES: C=C(C)COc1ccc2c(c1)[C@]1(COC(N)=N1)c1cc(-c3cccnc3)ccc1O2 [compound 146]

More lines, now with the values behind:

SMILES: NC1=N[C@@]2(CO1)c1cc(Br)ccc1Oc1cnc(Cl)cc12 [compound 548]
IC50 [1, 3]: > 5 µM
IC50 [2, 4]: > 5 µM

SMILES: CC(C)(C)C#Cc1ccc2c(c1)[C@]1(COC(N)=N1)c1cc(Cl)ncc1O2 [compound 846]
IC50 [1, 3]: 1 to 5 µM
IC50 [2, 4]: > 5 µM

SMILES: CC1(C)C=C(c2cc3c(cn2)Oc2ccc(-c4cccnc4F)cc2[C@@]32COC(N)=N2)CCO1 [compound 435]
IC50 ([1]; BACE1 FRET assay (uM)): < 0.1 µM
IC50 ([2]; HEK cell assay (uM), HEK cells): < 0.1 µM

SMILES: CC(C)(C)OC(=O)/C=C/c1ccc2c(c1)[C@]1(COC(N)=N1)c1cc(-c3cncnc3)ccc1O2 [compound 994]
IC50 ([1]; read-out: BACE1 FRET assay): 0.1 to 1 µM
IC50 ([2]; read-out: HEK cell assay): 1 to 5 µM

SMILES: CC(C)(C)COc1ccc2c(c1)[C@]1(COC(N)=N1)c1cc(-c3ncc[nH]3)ccc1O2 [compound 979]
IC50 ([1]; read-out: BACE1 FRET assay): 0.1 to 1 µM
IC50 ([2]; read-out: HEK cell assay): 1 to 5 µM

SMILES: CC(C)(C)COc1ccc2c(c1)[C@]1(COC(N)=N1)c1cc(C#N)ccc1O2 [compound 959]
IC50 ([1]; read-out: BACE1 FRET assay): 0.1 to 1 µM
IC50 ([2]; read-out: HEK cell assay): 1 to 5 µM

SMILES: CC(C)(C)C#Cc1cnc2c(c1)[C@]1(COC(N)=N1)c1cc(-c3cnccn3)ccc1O2 [compound 654]
IC50 [1, 3]: < 0.1 µM
IC50 [2, 4]: < 0.1 µM

SMILES: NC1=N[C@]2(CO1)c1cc(-c3cccnc3F)ccc1Oc1c(F)cccc12 [compound 574]
IC50 [1, 3]: < 0.1 µM
IC50 [2, 4]: 0.1 to 1 µM

SMILES: CC(C)(C)COc1ccc2c(c1)[C@]1(COC(N)=N1)c1cc(C3CC3(C)C)ccc1O2 (some centres unmarked) [compound 754]
IC50 ([1]; read-out: BACE1 FRET assay): < 0.1 µM
IC50 ([2]; read-out: HEK cell assay): 0.1 to 1 µM

SMILES: CC1(COc2ccc3c(c2)[C@@]2(COC(N)=N2)c2cc(-c4ccccc4)cnc2O3)COC1 [compound 966, (5S)-7-((3-methyl-3-oxetanyl)methoxy)-3-phenylspiro[chromeno[2,3-b]pyridine-5,4′-[1,3]oxazol]-2′-amine]
IC50 ([1]; read-out: BACE1 FRET assay): < 0.1 µM
IC50 ([2]; read-out: HEK cell assay): < 0.1 µM

SMILES: Cc1cnc(F)c(-c2ccc3c(c2)[C@@]2(COC(N)=N2)c2cc(C4CCOCC4)ncc2O3)c1 [compound 332]
IC50 [1, 5]: < 0.1 µM
IC50 [2, 6]: < 0.1 µM

SMILES: NC1=N[C@@]2(CO1)c1cc(-c3cccnc3F)ccc1Oc1cnc(-c3ccccn3)cc12 [compound 516]
IC50 ([1]; BACE1 FRET assay (uM)): < 0.1 µM
IC50 ([2]; HEK cell assay (uM), HEK cells): < 0.1 µM

SMILES: CC(C)CCCOc1nccc2c1[C@@]1(COC(N)=N1)c1cc(-c3cccnc3)ccc1O2 [compound 843]
IC50 [1, 3]: > 5 µM
IC50 [2, 4]: > 5 µM

SMILES: Cn1cc(-c2ccc3c(c2)[C@@]2(COC(N)=N2)c2cc(OCC(C)(C)C)ccc2O3)cn1 [Example 82, (4S)-2′-(2,2-dimethylpropoxy)-7′-(1-methyl-1H-pyrazol-4-yl)spiro[1,3-oxazole-4,9′-xanthen]-2-amine]
IC50 [1, 8]: 0.1 to 1 µM
IC50 [2, 9]: 1 to 5 µM

SMILES: CC(C)(C)COc1ccc2c(c1)[C@]1(COC(N)=N1)c1cc(-c3cccnc3Cl)ccc1O2 [compound 913]
IC50 [1, 3]: < 0.1 µM
IC50 [2, 4]: 0.1 to 1 µM

SMILES: NC1=N[C@@]2(CO1)c1cc(-c3ccc(F)nc3)ccc1Oc1cnc(C3=CCOCC3)cc12 [compound 431, (5S)-3-(3,6-dihydro-2H-pyran-4-yl)-7-(6-fluoro-3-pyridinyl)spiro[chromeno[2,3-c]pyridine-5,4′-[1,3]oxazol]-2′-amine]
IC50 ([1]; read-out: BACE1 FRET assay): < 0.1 µM
IC50 [2, 7]: < 0.1 µM

SMILES: COCC(=O)Nc1ccc2c(c1)[C@@]1(COC(N)=N1)c1cc(C#CC(C)(C)C)ccc1O2 [compound 324]
IC50 [1, 5]: < 0.1 µM
IC50 [2, 6]: 0.1 to 1 µM

SMILES: NC1=N[C@@]2(CO1)c1cc(-c3cccnc3)ccc1Oc1cnc(C3CCCCC3)cc12 [compound 791]
IC50 ([1]; read-out: BACE1 FRET assay): < 0.1 µM
IC50 ([2]; read-out: HEK cell assay): 0.1 to 1 µM

SMILES: CN(C)CC#Cc1ccc2c(c1)[C@@]1(COC(N)=N1)c1cc(OCC(C)(C)C)ccc1O2 [Example 89, (4S)-2′-(3-(dimethylamino)-1-propyn-1-yl)-7′-(2,2-dimethylpropoxy)spiro[1,3-oxazole-4,9′-xanthen]-2-amine]
IC50 [1, 8]: 0.1 to 1 µM
IC50 [2, 9]: 0.1 to 1 µM

SMILES: CC(C)(C)COc1ccc2c(c1)[C@@]1(COC(N)=N1)c1cc(-c3cccnc3F)cnc1O2 [compound 952]
IC50 ([1]; read-out: BACE1 FRET assay): < 0.1 µM
IC50 ([2]; read-out: HEK cell assay): < 0.1 µM

SMILES: NC1=N[C@@]2(CO1)c1cc(-c3cc(Cl)ccc3F)ccc1Oc1ncc(C3CCOCC3)cc12 [compound 404]
IC50 [1, 5]: < 0.1 µM
IC50 [2, 6]: < 0.1 µM

SMILES: NC1=N[C@@]2(CO1)c1cc(-c3cc(Cl)ccc3F)ccc1Oc1ncc(N3CCOCC3)cc12 [compound 457]
IC50 ([1]; read-out: BACE1 FRET assay): < 0.1 µM
IC50 [2, 7]: < 0.1 µM

SMILES: CC(C)(C)C#Cc1ccc2c(c1)[C@@]1(COC(N)=N1)c1cc(C#CC(C)(C)C)cnc1O2 [compound 897]
IC50 [1, 3]: < 0.1 µM
IC50 [2, 4]: 0.1 to 1 µM

SMILES: COc1ccc2c(c1)[C@@]1(N=C(N)O[C@@H]1C)c1cc(-c3cncnc3)ccc1O2 (single isomer, unassigned) [Example 125d]
IC50 [1, 10]: 0.1 to 1 µM
IC50 [2, 11]: 0.1 to 1 µM

SMILES: NC1=N[C@@]2(CO1)c1cc(-c3cncnc3)ccc1Oc1ncc(C#CC3CC3)cc12 [compound 742]
IC50 ([1]; read-out: BACE1 FRET assay): < 0.1 µM
IC50 ([2]; read-out: HEK cell assay): < 0.1 µM

SMILES: CC1(C)Cc2cc(-c3ccc4c(c3)[C@]3(COC(N)=N3)c3cc(-c5cncnc5)ccc3O4)ccc2O1 [compound 841]
IC50 [1, 3]: < 0.1 µM
IC50 [2, 4]: 0.1 to 1 µM

SMILES: CC(C)(C)CCc1ccc2c(c1)[C@@]1(COC(N)=N1)c1cc(-c3ccc(F)nc3)ccc1O2 [153a]
IC50 [1, 10]: < 0.1 µM
IC50 [2, 11]: 0.1 to 1 µM

SMILES: CC(C)(F)COc1cnc2c(c1)[C@]1(COC(N)=N1)c1cc(-c3cccc(C#N)c3)ccc1O2 [compound 357]
IC50 [1, 5]: < 0.1 µM
IC50 [2, 6]: < 0.1 µM
